{
  "source": "patent US7144857B2",
  "about": "(priority 2004, dated 2006)",
  "origin": "cited, not measured here",
  "tested_on": "sternal wound infections",
  "settings": "416 patients, randomized to topical vancomycin; p=0.02",
  "data": [
    {"smiles": "CN[C@H](CC(C)C)C(=O)N[C@H]1C(=O)N[C@@H](CC(N)=O)C(=O)N[C@H]2C(=O)N[C@H]3C(=O)N[C@H](C(=O)N[C@H](C(=O)O)c4cc(O)cc(O)c4-c4cc3ccc4O)[C@H](O)c3ccc(c(Cl)c3)Oc3cc2cc(c3O[C@@H]2O[C@H](CO)[C@@H](O)[C@H](O)[C@H]2O[C@H]2C[C@](C)(N)[C@H](O)[C@H](C)O2)Oc2ccc(cc2Cl)[C@H]1O", "note": "[topical vancomycin, vancomycin]", "values": [
      {"measurement": "decrease of the rate of sternal infection", "value": 7, "unit": "factor"}
    ]}
  ]
}
